Earlier results in US6987099B2, “Uncomplexed cyclodextrin compositions for odor control” (The Procter & Gamble Company, priority 1997, dated 2006).
Structures can show the parent of a compound that is named as a salt.

Q: With OCCOc1ccccc1 [2-phenoxyethanol] as the molecule, how does the solubility in water read?
A: about 2.67%

Q: With OCCc1ccccc1 [2-phenylethanol] as the molecule, how does the solubility in water read?
A: about 2%

Q: For O=[N+]([O-])C1(Br)COCOC1 [Bronidox L, 5-bromo-5-nitro-1,3-dioxane], which solubility in water is on record?
A: about 0.46%

Q: With CC1(C)C(=O)N(CO)C(=O)N1CO [DMDM hydantoin, 1,3-bis(hydroxymethyl)-5,5-dimethyl-2,4-imidazolidinedione] as the molecule, how does the solubility in water read?
A: more than 50%

Q: Which “solubility in water” value does the source give for ClC=CC[N+]12CN3CN(CN(C3)C1)C2.[Cl-] [Dowicil 200, 1-(3-Chlorallyl)-3,5,7-triaza-1-azoniaadamantane chloride] here?
A: freely soluble in water

Q: Which solubility in water does the source give for OCc1ccccc1 [benzyl alcohol] here?
A: about 4%

Q: Which solubility in water does the source give for CC(C)(O)C(Cl)(Cl)Cl [chlorobutanol, 1,1,1-Trichloro-2-methylpropan-2-ol] here?
A: about 0.8%

Q: For [H]/N=C(\N/C(=N/[H])NCCCCCCNC(=N)NC(=N)Nc1ccc(Cl)cc1)Nc1ccc(Cl)cc1 [diacetate salt, 1,1′-hexamethylene bis(5-(p-chlorophenyl)biguanide), reference compound], which solubility in water is on record?
A: about 1.8%

Q: For [H]/N=C(\N/C(=N/[H])NCCCCCCNC(=N)NC(=N)Nc1ccc(Cl)cc1)Nc1ccc(Cl)cc1 [digluconate salt, 1,1′-hexamethylene bis(5-(p-chlorophenyl)biguanide), reference compound], which solubility in water is on record?
A: about 70%

Q: Which solubility in water does the source give for [Na+].[O-][n+]1ccccc1[S-] [sodium pyrithione] here?
A: about 50%
